From ChEMBL document CHEMBL1133391, “Synthesis and antibacterial activity of 2alpha-functionalized 1beta-methylcarbapenems related to KR-21012” (Bioorg Med Chem Lett, 2000)
In brackets after ≈: the same amount, converted by molar mass.

Legend:
[1] = system: Klebsiella aerogenes; assay: Compound was evaluated for in vitro antibacterial activity against Klebsiella aerogenes 1522 E strain by agar dilution method; format: functional
[2] = Tmax at a single subcutaneous administration of 40 mg/kg in mice; format: ADME, organism-based; set-up: dose 40 mg/kg, route subcutaneous; details: mouse, in vivo, sc
[3] = system: Escherichia coli; assay: Compound was evaluated for in vitro antibacterial activity against Escherichia coli 078 strain by agar dilution method; format: functional
[4] = biological target: T1, Dipeptidase 1 (Sus scrofa) (UniProt P22412); assay: Compound was evaluated for DHP-1 stability by using purified porcine renal enzyme; format: functional
T1 sequence (whole entry): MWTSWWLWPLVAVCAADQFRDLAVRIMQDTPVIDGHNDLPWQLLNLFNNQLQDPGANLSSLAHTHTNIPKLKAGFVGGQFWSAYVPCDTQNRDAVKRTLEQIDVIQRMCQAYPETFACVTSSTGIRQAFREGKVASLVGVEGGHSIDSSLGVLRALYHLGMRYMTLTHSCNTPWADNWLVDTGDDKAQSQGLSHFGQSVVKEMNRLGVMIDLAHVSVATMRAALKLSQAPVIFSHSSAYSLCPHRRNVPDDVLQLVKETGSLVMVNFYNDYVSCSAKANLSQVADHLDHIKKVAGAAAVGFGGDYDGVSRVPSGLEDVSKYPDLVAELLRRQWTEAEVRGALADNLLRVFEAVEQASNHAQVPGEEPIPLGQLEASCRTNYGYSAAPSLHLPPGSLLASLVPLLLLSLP

[5] = system: Klebsiella oxytoca; assay: Compound was evaluated for in vitro antibacterial activity against Klebsiella oxytoca 1082 E strain by agar dilution method; format: functional
[6] = system: Staphylococcus aureus; assay: Compound was evaluated for in vitro antibacterial activity against Staphylococcus aureus SG511 strain by agar dilution method; format: functional
[7] = system: Mus musculus; assay: In vivo protective activity administered sc 1 hr after ip Escherichia coli 078 strain infection in mice; format: functional; details: read-out: PD50
[8] = system: Enterococcus faecium; assay: Compound was evaluated for in vitro antibacterial activity against Streptococcus faecium MD strain by agar dilution method; format: functional
[9] = system: Streptococcus pyogenes; assay: Compound was evaluated for in vitro antibacterial activity against Streptococcus pyogenes 77A strain by agar dilution method; format: functional
[10] = system: Staphylococcus aureus; assay: Compound was evaluated for in vitro antibacterial activity against Staphylococcus aureus 285 strain by agar dilution method; format: functional
[11] = system: Pseudomonas aeruginosa; assay: Compound was evaluated for in vitro antibacterial activity against Pseudomonas aeruginosa 1771 M strain by agar dilution method; format: functional
[12] = system: Salmonella typhimurium; assay: Compound was evaluated for in vitro antibacterial activity against Salmonella Typhimurium by agar dilution method; format: functional, Salmonella enterica subsp. enterica serovar Typhimurium; details: Salmonella enterica
[13] = system: Enterobacter cloacae; assay: Compound was evaluated for in vitro antibacterial activity against Enterobacter cloacae P99 strain by agar dilution method; format: functional
[14] = system: Mus musculus; assay: In vivo protective activity administered sc 1 hr after ip Streptococcus pyogenes 77A strain infection in mice; format: functional; details: read-out: PD50
[15] = Peak concentration at a single subcutaneous administration of 40 mg/kg in mice; format: ADME, organism-based; set-up: dose 40 mg/kg, route subcutaneous; details: mouse, in vivo, sc
[16] = Half-life at a single subcutaneous administration of 40 mg/kg in mice; format: ADME, organism-based; set-up: dose 40 mg/kg, route subcutaneous; details: mouse, in vivo, sc
[17] = system: Pseudomonas aeruginosa; assay: Compound was evaluated for in vitro antibacterial activity against Pseudomonas aeruginosa 1771 strain by agar dilution method; format: functional
[18] = system: Escherichia coli; assay: Compound was evaluated for in vitro antibacterial activity against Escherichia coli 1507 E strain by agar dilution method; format: functional
[19] = Urinary recovery by disk method using Streptococcus pyogenes (0-24 h); format: ADME, organism-based; details: mouse, urine; read-out: UR
[20] = system: Mus musculus; assay: Area under the curve was determined for the compound at a single subcutaneous administration of 40 mg/kg in mice; format: ADME, organism-based; set-up: dose 40 mg/kg, route subcutaneous; unit not given here; details: in vivo, sc
[21] = system: Mus musculus; assay: In vivo protective activity administered sc 1 hr after ip Enterobacter cloacae P strain infection in mice; format: functional; details: read-out: PD50
[22] = biological target: T1, Dipeptidase 1 (Sus scrofa); assay: Compound was evaluated for DHP-1 stability by using purified porcine renal enzyme which is represented as the relative rate of hydrolysis compared to imipenem (rate=100); format: functional

Structure (SMILES) | MIC [1] [µg/mL] | Tmax [2] [min] | MIC [3] [µg/mL] | Activity [4] | MIC [5] [µg/mL] | MIC [6] [µg/mL] | ED50 [7] [mg/kg] | MIC [8] [µg/mL] | MIC [9] [µg/mL] | MIC [10] [µg/mL] | MIC [11] [µg/mL] | MIC [12] [µg/mL] | MIC [13] [µg/mL] | ED50 [14] [mg/kg] | Cmax [15] [ng/mL] | half-life [16] [min] | MIC [17] [µg/mL] | MIC [18] [µg/mL] | dose excreted [19] [%] | AUC [20] | other results
C[C@@H](O)[C@H]1C(=O)N2C(C(=O)O)=C(S[C@@H]3CN[C@H](C(=O)N(C)C)C3)[C@H](C)[C@H]12 [MEROPENEM] | 0.049 (≈ 0.128 µM) | 12.6 | 0.013 (≈ 0.0339 µM) | 32 | 0.049 (≈ 0.128 µM) | 0.013 (≈ 0.0339 µM) | 1.24 | 6.25 (≈ 16.3 µM) | 0.013 (≈ 0.0339 µM) | 0.195 (≈ 0.509 µM) | 0.049 (≈ 0.128 µM) | 0.049 (≈ 0.128 µM) | 0.025 (≈ 0.0652 µM) | 4.6 | 7600 | 14.4 | 0.361 (≈ 0.941 µM) | 0.025 (≈ 0.0652 µM) |  |  | 
CC(C)[C@@H](O)C1=C(C(=O)[O-])N2C(=O)[C@H]([C@@H](C)O)C2[C@H]1C.[Na+] (stereo partly drawn) | 0.391 | 15 | 0.049 | 21 | 1.56 | 0.098 | 1.3 | 1.56 | 0.007 | 0.098 | 0.781 | 0.098 | 1.56 | 1.19 | 25000 | 41.4 | 100 | 0.049 | 25.1 | 20.9 | ED50 [21]: 1.37 mg/kg
CC[C@H](O)C1=C(C(=O)[O-])N2C(=O)[C@H]([C@@H](C)O)C2[C@H]1C.[Na+] (stereo partly drawn) | 0.781 |  | 0.391 |  | 12.5 | 0.391 |  | 12.5 | 0.049 | 0.391 | 6.25 | 0.781 | 0.781 |  |  |  | 100 | 0.391 |  |  | 
CO[C@H]1CCC[C@H]2C1=C(C(=O)[O-])N1C(=O)[C@H]([C@@H](C)O)[C@@H]21.[Na+] [SANFETRINEM SODIUM] | 0.391 | 22.2 | 0.049 | 20 | 1.56 | 0.098 | 3.13 | 1.56 | 0.007 | 0.049 | 0.391 | 0.195 | 3.12 | 1.46 | 28800 | 33 | 25 | 0.195 | 20.5 | 27.39 | ED50 [21]: 1.18 mg/kg
C[C@H]1C([C@H](O)C2CC2)=C(C(=O)[O-])N2C(=O)[C@H]([C@@H](C)O)C12.[Na+] (stereo partly drawn) | 0.195 | 10.2 | 0.098 |  | 0.781 | 0.049 | 23.1 | 0.781 | 0.007 | 0.049 | 1.56 | 0.098 | 0.781 | 7.94 | 18100 | 18.6 | 100 | 0.049 | 14.3 | 6.86 | Activity [22]: 38; ED50 [21]: 12.6 mg/kg
